Results as given in patent US11185527B2, “Methods and compositions relating to steroid hormone receptor-dependent cancers” (Wayne State University, priority 2017, dated 2021).
Several values for one entry are separate records, joined by “and”; a condition that tells them apart may be missing. Equal values may be shown once.

Tests used:
[1] = tested on: AR target genes in 22Rv1 CRPC cells; experiment: Real time RT-PCR of AR target gene mRNAs in 22Rv1 cells; format: cell-based, human; details: 22Rv1, 10 μM, 72h
Description: FIG. 3D is a graph showing that in 22Rv1 cells were treated with 10 μM of KCI807 for 72h and real time RT-PCR was used to measure mRNAs for the indicated panel of genes tested in FIG. 3B and FIG. 3C.
Total RNA was isolated from cells using the RNeasy Mini Kit (Qiagen). Reverse transcription PCR was then performed using 500 ng of total RNA with random primers and using the high-capacity complementary DNA Archive kit (Applied Biosystems). The complementary DNA from this reaction was measured using quantitative real time PCR using the StepONE Plus Real Time PCR system (Life Technologies Corporation, Carlsbad, Calif.). All reactions were performed in triplicate and normalized to glyceraldehyde-3-phosphate-dehydrogenase values in the same samples. All primers and Taqman probes were purchased from the applied Biosystems inventory (Invitrogen)
To test the selectivity of KCI807 for ELK1-dependent gene activation by AR vs. other target genes of the receptor, 22Rv1 CRPC cells, which are dependent on both full length AR and AR-V7 for hormone-independent growth, were used. […]

ZR-75-1 cells = experiment: Breast cancer cell growth, MTT assay; format: cell-based
Description: FIG. 17A is a graph showing the effect on growth of various concentrations of 5,3′-Dihydroxyflavone on breast cancer cell line ZR-75-1 using the MTT assay.
(§1) Twenty four hours after plating the cells, they were treated with the indicated concentrations of the compound.

BT474 cells = experiment: Breast cancer cell growth, MTT assay; format: cell-based
Description: as §1

MCF-7 cells = experiment: Breast cancer cell growth, MTT assay; format: cell-based
Description: as §1

T47D cells = experiment: Breast cancer cell growth, MTT assay; format: cell-based
Description: as §1

[2] = Metabolism in pooled human liver microsomes (HLM) with or without NADPH; format: in vitro ADME; details: HLM 0.05 mg/ml, 30 minutes, 37° C.
Description: BD UltraPool human liver microsomes (HLM) 150 and the NAPDH regenerating system solution A and B were obtained from Corning Inc. Pooled HLM were used to determine percentage of metabolism of 5,3′-Dihydroxyflavone and 5,3-Dihydroxy-4′-methylflavone. The compounds (20 μM) were co-incubated with HLM (0.05 mg/ml) in the presence or absence of NAPDH for 30 minutes in a 37° C. water bath. At the end of the microsome reaction, the reaction was quenched with 1000 μl ethyl acetate. The mixture was vortexed and centrifuged at 13,000 rpm for 15 minutes, the supernatant was then subjected to high-performance liquid chromatography with tandem mass spectrometry ([…]) analysis.

[3] = Body weight and condition of mice in the PDX-PR011 xenograft study; details: for % body weight lost/gained: PDX-PR011 study
binding of AR to ELK1 = binding of AR to ELK1 (Homo sapiens, UniProt P10275); experiment: SPR competition: inhibition of binding of AR (analyte) to immobilized ELK1; details: AR 200 nM as analyte
Chain of binding of AR to ELK1 (P10275 whole entry): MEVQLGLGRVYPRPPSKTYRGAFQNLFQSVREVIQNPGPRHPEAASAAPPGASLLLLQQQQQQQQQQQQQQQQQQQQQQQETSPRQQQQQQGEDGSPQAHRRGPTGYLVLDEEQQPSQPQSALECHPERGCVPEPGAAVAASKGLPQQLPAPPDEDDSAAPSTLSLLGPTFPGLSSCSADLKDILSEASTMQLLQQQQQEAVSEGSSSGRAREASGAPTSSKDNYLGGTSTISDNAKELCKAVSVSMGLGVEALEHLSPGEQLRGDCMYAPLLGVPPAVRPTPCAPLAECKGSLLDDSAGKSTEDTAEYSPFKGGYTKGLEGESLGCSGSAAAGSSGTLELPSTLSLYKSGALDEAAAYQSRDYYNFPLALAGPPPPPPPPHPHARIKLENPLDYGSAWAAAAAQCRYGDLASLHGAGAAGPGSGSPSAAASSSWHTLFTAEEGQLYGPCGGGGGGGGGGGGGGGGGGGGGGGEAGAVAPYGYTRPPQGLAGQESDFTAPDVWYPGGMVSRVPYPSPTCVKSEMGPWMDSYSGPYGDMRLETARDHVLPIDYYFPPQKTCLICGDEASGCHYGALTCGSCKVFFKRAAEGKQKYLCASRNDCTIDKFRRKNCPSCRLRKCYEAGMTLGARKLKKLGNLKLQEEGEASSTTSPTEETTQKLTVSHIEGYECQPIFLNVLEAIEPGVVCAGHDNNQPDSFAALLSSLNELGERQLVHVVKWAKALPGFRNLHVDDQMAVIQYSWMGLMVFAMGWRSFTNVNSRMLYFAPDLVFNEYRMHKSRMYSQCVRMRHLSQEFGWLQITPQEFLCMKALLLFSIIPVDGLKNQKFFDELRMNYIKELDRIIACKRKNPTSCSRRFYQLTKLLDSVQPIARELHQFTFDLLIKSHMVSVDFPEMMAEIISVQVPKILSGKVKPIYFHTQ
Description: The sensor surface was regenerated between experiments by dissociating any formed complex in HBS-N buffer for 30 min, followed by a further 30-min stabilization period. After regeneration, the SPR signal returned to the original level (baseline). In all cases, baseline was established in the presence of the vehicle used for the compounds (DMSO) appropriately diluted in HBS-N buffer. The binding curves were analyzed using the heterogeneous analyte competition model. The kinetic curves were analyzed for a one-to-one Langmuir fitting model provided by with the Biacore 3000 instrument software.

What does the source list for `O=c1cc(-c2cccc(O)c2)oc2cccc(O)c12` [KCI807, 5,3′-dihydroxyflavone]?
effect on mRNA of AR target genes [1]: decreased expression of only the genes known to be supported synergistically by ELK1 and AR; growth of ZR-75-1 cells (ZR-75-1 cells): did not inhibit the growth; growth of BT474 cells (BT474 cells): growth inhibitory; growth of MCF-7 cells (MCF-7 cells): growth inhibitory; growth of T47D cells (T47D cells): growth inhibitory; compound concentration after HLM incubation, Control (absence of NADPH), replicate [2]: 973 nM and 981 nM and 1006 nM; compound concentration after HLM incubation, NADPH treated, replicate [2]: 796 nM and 725 nM and 863 nM; mean compound concentration, Control (absence of NADPH) [2]: 986 nM; mean compound concentration, NADPH treated [2]: 795 nM; percentage metabolized (%) ([2]; NADPH): 19.4%; % body weight lost/gained ([3]; Day 1 after tumor implant): 0%; % body weight lost/gained ([3]; Day 2 after tumor implant): −3.8%; % body weight lost/gained ([3]; Day 3 after tumor implant): −4.6%; % body weight lost/gained ([3]; Day 4 after tumor implant): −2.3%; % body weight lost/gained ([3]; Day 5 after tumor implant): −2.3%; % body weight lost/gained ([3]; Day 6 after tumor implant): −1.5%; % body weight lost/gained ([3]; Day 7 after tumor implant): 0%; % body weight lost/gained ([3]; Day 8 after tumor implant): −1.5%; % body weight lost/gained ([3]; Day 9 after tumor implant): +0.8%; % body weight lost/gained ([3]; Day 10 after tumor implant): +0.8%; % body weight lost/gained ([3]; Day 11 after tumor implant): +1.5%; % body weight lost/gained ([3]; Day 12 after tumor implant): +3.1%; symptoms during the study, PDX-PR011 xenograft ([3]; mouse, in vivo): asymptomatic; weight loss (in words), PDX-PR011 xenograft ([3]; mouse, in vivo): did not show appreciable weight loss; inhibition of binding of AR to immobilized ELK1 (binding of AR to ELK1): blocked binding
